Measured values taken from paper PMC10470053, “Diverse p120RasGAP interactions with doubly phosphorylated partners EphB4, p190RhoGAP, and Dok1” (The Journal of Biological Chemistry, 2023).
Positions count from the first letter of the chain named. Several values for one entry are separate records, joined by “and”; a condition that tells them apart may be missing. Equal values may be shown once. Values belong to the molecule of their own block, whether it stands above or below them. Square brackets hold non-standard residues; d marks the D form. Peptide text beside a SMILES is read from it. pY = N[C@@H](Cc1ccc(OP(=O)(O)O)cc1)C(=O)O

How the values were obtained:
[1] = target: T1, RasGAP^232(mut) (R398E/K400E, C-SH2 mutant) (Homo sapiens, UniProt P20936, C236S/C261S/C372S/C402S/K400E/R398E); experiment: Isothermal titration calorimetry, C-SH2 mutant RasGAP^232(mut); assay type: binding
T1 construct: (residues 174–444, termed RasGAP^232); hexahistidine (TEV-cleavable) (N, cleaved yes); made in house; host or cells: E. coli Rosetta (DE3)
T1 sequence (P20936 174-444 C236S/C261S/C372S/R398E/K400E/C402S): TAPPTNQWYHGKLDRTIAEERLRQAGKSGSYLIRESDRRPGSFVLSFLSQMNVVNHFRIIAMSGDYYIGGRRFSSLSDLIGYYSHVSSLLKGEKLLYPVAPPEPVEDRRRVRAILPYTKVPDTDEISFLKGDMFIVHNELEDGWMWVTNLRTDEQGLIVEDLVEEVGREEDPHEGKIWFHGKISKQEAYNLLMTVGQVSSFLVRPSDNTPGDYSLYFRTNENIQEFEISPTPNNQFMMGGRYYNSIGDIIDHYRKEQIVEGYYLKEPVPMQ
Method: One possibility for the difference in binding affinity of EphB4 compared to the other dually phosphorylated peptides is that only a single SH2 domain engages EphB4 at any time. This is supported by the observation that the Kd of binding, 2 μM, is similar to other reported individual SH2 phosphotyrosine interactions (for examples see ([60])) and the evidence of only one inflection point in the doubly phosphorylated EphB4–binding isotherm (Figs. 2B and S3). To assess this hypothesis, we generated two RasGAP^232 mutants that disrupt the phosphotyrosine-binding sites of either the N- or C-SH2 domains and conducted further ITC experiments. […] For the ‘FLVR-unique” C-terminal SH2, we introduced a double mutation R398E/K400E, to abrogate phosphotyrosine binding guided by our previous work ([52]), termed RasGAP^232(mut) (Fig. 2D). We additionally generated a double mutant of both SH2 domains, RasGAP^2(mut)32(mut), and purified each of these proteins (Fig. S2, B–D). […] We then assessed phosphopeptide binding of the single mutant SH2 domains. […] This is similar to the Kd of 2 ± 0.7 μM observed for titration of this peptide into WT RasGAP^232.
To attempt to parse the specificity of RasGAP for the more N- or C-terminal EphB juxtamembrane phosphotyrosines pY590 and pY596, we assessed the affinity of RasGAP^232(mut) for shorter synthesized EphB4 peptides corresponding to either of the two phosphotyrosines (Fig. 1C). […] Alternatively, the C-terminal SH2 may contribute to a second weaker interaction in a tandem interaction. […] This low-affinity interaction represents a primarily single N-SH2-dominant interaction.
Purified RasGAP^232 protein and solubilized peptides were dialyzed overnight against buffer containing 20 mM Tris pH 8, 250 mM NaCl in Slide-A-Lyzer 3 ml 10 kDa molecular weight cut off cassettes (Spectra-Por) and Micro Float-A-Lyzer 0.1 to 0.2 ml, 0.1 to […] molecular weight cut off devices (Spectra-Por), respectively. Protein and peptide concentrations were determined by A280 measured on a Nanodrop Lite (Thermo Fisher Scientific) instrument using extinction coefficients of 45,840 M^−1 cm^−1 for RasGAP^232 (and mutants), 917 M^−1 cm^−1 for the doubly phosphorylated EphB4 peptide, and 458.5 M^−1 cm^−1 for the singly phosphorylated EphB4 peptides as determined by ([74]). Dok1 peptide concentration was confirmed using Amino Acid Analysis performed at UC Davis Molecular Structure Facility. Samples were centrifuged for 10 min at 4 °C and degassed for 7 min using a Degassing Station (TA Instruments). ITC experiments were performed on a Nano ITC (TA Instruments) by loading protein into the 190 μl sample cell and titrating 20 times with 2.5 μl peptide in the titration syringe. Concentrations for sample cell and syringe for each trial are included in Table S1. The data were analyzed in NanoAnalyze software (TA Instrument) using blank (constant) and independent models (https://www.tainstruments.com/itcrun-dscrun-nanoanalyze-software/).

[2] = target: T2, RasGAP^232(mut) (RasGAP^232 with R398E/K400E in the C-SH2 domain) (human, UniProt P20936 174-444, R398E | K400E | C236 | C261 | C372 | C402); experiment: ITC; protein in the 190 ul sample cell, titrated 20 times with 2.5 ul peptide from the syringe; 20 mM Tris pH 8, 250 mM NaCl; Nano ITC (TA Instruments); independent binding model; settings: both partners purified
T2 construct: p120RasGAP (RASA1), human, UniProt P20936, residues 174-444, mutant of RasGAP^232 in the C-SH2 domain; also called C-SH2 mutant; source: E. coli Rosetta (DE3), purified (same protocol as the WT: Ni-NTA, TEV cleavage, anion exchange, SEC)
T2 sequence (looked up): T1 sequence (P20936 174-444 C236S/C261S/C372S/R398E/K400E/C402S)

[3] = target: T3, RasGAP^232 (p120RasGAP N-SH2, SH3 and C-SH2 domains, residues 174-444) (human, UniProt P20936 174-444, C236 | C261 | C372 | C402); experiment: as above; settings: both partners purified
T3 construct: p120RasGAP (RASA1), human, UniProt P20936, residues 174-444 (N-SH2, SH3, C-SH2), with four cysteine to serine mutations; also called WT RasGAP^232; apo RasGAP^232; source: E. coli Rosetta (DE3), purified (Ni-NTA, TEV cleavage, anion exchange, SEC)
T3 sequence (looked up): T1 sequence (P20936 174-444 C236S/C261S/C372S/R398E/K400E/C402S) with E225R, E227K

[4] = target: T4, RasGAP^232(mut) (RasGAP^232 with R398E/K400E in the C-SH2 domain) (human, UniProt P20936 174-444, C236S | C261S | C372S | C402S | R398E | K400E); experiment: ITC; RasGAP^232 protein (WT or mutant) in the 190 µl sample cell, peptide in the syringe, 20 injections of 2.5 µl; 20 mM Tris pH 8, 250 mM NaCl; Nano ITC (TA Instruments); blank (constant) and independent models; values of single trials, averages and stdev; settings: both partners purified
T4 construct: p120RasGAP, human, UniProt P20936, residues 174-444; Made by site-directed mutagenesis of RasGAP^232, which holds the four cysteine to serine mutations; also called C-SH2 mutant; source: E. coli Rosetta (DE3), purified (same protocol as the WT counterpart); not shown: His6, N-terminal, cleaved
T4 sequence (looked up): T1 sequence (P20936 174-444 C236S/C261S/C372S/R398E/K400E/C402S)

[5] = ITC, average of trials (Table S1)

- weaker binding than the doubly phosphorylated EphB4 peptide ([1]; ITC Kd, singly versus doubly phosphorylated EphB4 peptide): about 10 fold
- n ([1]; ITC stoichiometry, mean ± SD of trials): 0.6 ± 0.2
- -T∆S [1, 5]: -5 kJ/mol
- Ka [1, 5]: 0.05 µM⁻¹
- ∆G [1, 5]: -26.7 kJ/mol
- ΔH ([1]; ITC, mean ± SD of trials): -22 kJ/mol and -22 ± 4 kJ/mol
- ΔS ([1]; ITC, mean ± SD of trials): 15 J/mol∗K and 15 ± 13 J/mol∗K
- -T∆S ([1]; trial 2, ITC): -6.6 kJ/mol
- ∆G ([1]; trial 2, ITC): -26.6 kJ/mol
- ∆H ([1]; trial 2, ITC): -20.1 kJ/mol
- ∆S ([1]; trial 2, ITC): 22.0 J/mol*K
- -T∆S ([1]; trial 3, ITC): -0.2 kJ/mol
- Ka ([1]; trial 3, ITC): 0.05 µM⁻¹
- ∆G ([1]; trial 3, ITC): -27.1 kJ/mol
- ∆H ([1]; trial 3, ITC): -26.9 kJ/mol
- ∆S ([1]; trial 3, ITC): 0.8 J/mol*K
Molecule: CC(=O)N[C@@H](CC(=O)O)C(=O)N1CCC[C@H]1C(=O)N[C@@H](Cc1ccccc1)C(=O)N[C@H](C(=O)N[C@@H](Cc1ccc(OP(=O)(O)O)cc1)C(=O)N[C@@H](CCC(=O)O)C(=O)N[C@@H](CC(=O)O)C(=O)N1CCC[C@H]1C(=O)N[C@@H](CC(N)=O)C(=O)N[C@@H](CCC(=O)O)C(N)=O)[C@@H](C)O [pY596 EphB4] (Ac-DPFT[pY]EDPNE-NH2)

- Kd [2]: 16 ± 7 µM
- dH [2]: -15.5 kJ/mol
- stoichiometry N [2]: 0.8 ± 0.1
B1: singly phosphorylated EphB4 peptide pY590 (residues 586-595) (peptide)
peptide: Ac-GTKV[pY]IDPFT-NH2
SMILES: CC[C@H](C)[C@H](NC(=O)[C@H](Cc1ccc(OP(=O)(O)O)cc1)NC(=O)[C@@H](NC(=O)[C@H](CCCCN)NC(=O)[C@@H](NC(=O)CNC(C)=O)[C@@H](C)O)C(C)C)C(=O)N[C@@H](CC(=O)O)C(=O)N1CCC[C@H]1C(=O)N[C@@H](Cc1ccccc1)C(=O)N[C@H](C(N)=O)[C@@H](C)O
notes: EphB4 juxtamembrane region, UniProt P54760, residues 586-595; also called pY590 EphB4; source: synthetic peptide, bought: GenScript

- Kd [4]: 24.2 µM and 14.6 µM and 9.7 µM
- stoichiometry N [4]: 0.7 and 0.8
B4: singly phosphorylated EphB4 peptide pY590 (peptide)
peptide: Ac-GTKV[pY]IDPFT-NH2
SMILES: CC[C@H](C)[C@H](NC(=O)[C@H](Cc1ccc(OP(=O)(O)O)cc1)NC(=O)[C@@H](NC(=O)[C@H](CCCCN)NC(=O)[C@@H](NC(=O)CNC(C)=O)[C@@H](C)O)C(C)C)C(=O)N[C@@H](CC(=O)O)C(=O)N1CCC[C@H]1C(=O)N[C@@H](Cc1ccccc1)C(=O)N[C@H](C(N)=O)[C@@H](C)O
notes: EphB4, UniProt P54760, residues 586-595; also called pY590 EphB4; source: synthetic peptide, bought: GenScript

The remaining lines, values behind:

B2: singly phosphorylated EphB4 peptide pY596 (peptide)
peptide: Ac-DPFT[pY]EDPNE-NH2
SMILES: CC(=O)N[C@@H](CC(=O)O)C(=O)N1CCC[C@H]1C(=O)N[C@@H](Cc1ccccc1)C(=O)N[C@H](C(=O)N[C@@H](Cc1ccc(OP(=O)(O)O)cc1)C(=O)N[C@@H](CCC(=O)O)C(=O)N[C@@H](CC(=O)O)C(=O)N1CCC[C@H]1C(=O)N[C@@H](CC(N)=O)C(=O)N[C@@H](CCC(=O)O)C(N)=O)[C@@H](C)O
notes: EphB4 juxtamembrane region, UniProt P54760; also called pY596 EphB4; source: synthetic peptide, bought: GenScript
- Kd [2]: 21 ± 3 µM
- dH [2]: -22 ± 4 kJ/mol
- stoichiometry N [2]: 0.6 ± 0.2

B3: doubly phosphorylated Dok1 peptide (residues 291-322, pY296 and pY315) (peptide)
peptide: Ac-SPPAL[pY]AEPLDSLRIAPCPSQDSL[pY]SDPLDST-NH2
SMILES: CC[C@H](C)[C@H](NC(=O)[C@H](CCCNC(=N)N)NC(=O)[C@H](CC(C)C)NC(=O)[C@H](CO)NC(=O)[C@H](CC(=O)O)NC(=O)[C@H](CC(C)C)NC(=O)[C@@H]1CCCN1C(=O)[C@H](CCC(=O)O)NC(=O)[C@H](C)NC(=O)[C@H](Cc1ccc(OP(=O)(O)O)cc1)NC(=O)[C@H](CC(C)C)NC(=O)[C@H](C)NC(=O)[C@@H]1CCCN1C(=O)[C@@H]1CCCN1C(=O)[C@H](CO)NC(C)=O)C(=O)N[C@@H](C)C(=O)N1CCC[C@H]1C(=O)N[C@@H](CS)C(=O)N1CCC[C@H]1C(=O)N[C@@H](CO)C(=O)N[C@@H](CCC(N)=O)C(=O)N[C@@H](CC(=O)O)C(=O)N[C@@H](CO)C(=O)N[C@@H](CC(C)C)C(=O)N[C@@H](Cc1ccc(OP(=O)(O)O)cc1)C(=O)N[C@@H](CO)C(=O)N[C@@H](CC(=O)O)C(=O)N1CCC[C@H]1C(=O)N[C@@H](CC(C)C)C(=O)N[C@@H](CC(=O)O)C(=O)N[C@@H](CO)C(=O)N[C@H](C(N)=O)[C@@H](C)O
notes: Dok1, UniProt Q99704, residues 291-322; also called pYpY Dok1; source: synthetic peptide, bought: GenScript
- Kd [3]: 0.03 ± 0.02 µM
- dH [3]: -78 ± 3 kJ/mol
- stoichiometry N [3]: 0.8 ± 0.1

B5: singly phosphorylated EphB4 peptide pY596 (peptide)
peptide: Ac-DPFT[pY]EDPNE-NH2
SMILES: CC(=O)N[C@@H](CC(=O)O)C(=O)N1CCC[C@H]1C(=O)N[C@@H](Cc1ccccc1)C(=O)N[C@H](C(=O)N[C@@H](Cc1ccc(OP(=O)(O)O)cc1)C(=O)N[C@@H](CCC(=O)O)C(=O)N[C@@H](CC(=O)O)C(=O)N1CCC[C@H]1C(=O)N[C@@H](CC(N)=O)C(=O)N[C@@H](CCC(=O)O)C(N)=O)[C@@H](C)O
notes: EphB4, UniProt P54760; also called pY596 EphB4; source: synthetic peptide, bought: GenScript
- Ka [4]: 40000 M⁻¹ and 50000 M⁻¹
- Kd [4]: 24 µM and 22 µM and 18 µM
- stoichiometry N [4]: 0.7 and 0.8 and 0.4
